Measured values taken from patent EP0504184B1, “ACTIVE AGENT AGAINST RETROVIRUS GROUP VIRUSES, COMPOSITIONS CONTAINING SAME AND THEIR USE” (PREVISAN S.A., priority 1989, dated 1991).

System: virus VIH-1
Assay: Infectivity of pretreated HIV-1 virus for the Supt-1 line (p24 antigen in cell lysates, optical density; phase-contrast microscopy)
Format: cell-based
Conditions: for multiplication du virus VIH-1 dans les cellules Supt-1: after 1, 10 and 30 minutes incubation with the agent at ordinary temperature; for Mesure d'infectivité du virus VIH-1 (D.O.492): p24 in Supt-1 lysates
From the text: Ces essais comprennent comme matériel de départ : • de la N, N'-dichloroazodicarbonamidine (chloroazodine) à 95 % pure. La pureté a été examinée par chromatographie en couche mince et par un test de carbone-hydrogène (v. BRAZ G.I. et cons., J. Applied Chem. (USSR) 17,565-9 (1944)). • un surnageant de cultures de cellules (Molt-3) continuellement productrices de virus VIH-1. Le surnageant viral utilisé a une activité de transcriptase inverse de 1 x 10^6 cpm/ml. • des cellules d'une lignée T humaine continue de phénotype T4 (Supt-1) cultivée en milieu RPMI, additionné de 10 % de sérum de veau foetal et de 1 % de glutamine.
L' efficacité de la chloroazodine va être étudiée à deux niveaux : • a) action sur l'infectivité du virus VIH-1 pour la lignée Supt-1. • b) action sur l'intégration du génome viral dans l'ADN chromosomial des cellules Supt-1.
On fait incuber des préparations virales de VIH-1 à haut titre en présence de dilutions de chloroazodine de 1/1500 et de 1/3000 et pendant différents temps d'incubation. Pendant 30 minutes à 37°C, on traite préalablement les cellules Supt-1 par 10 µg/ml de polybrène, puis on les inocule avec les préparations de virus traités. On prévoit comme témoins, des cellules non inoculées, et des cellules inoculées par une préparation de virus non traités.
On détermine ensuite l'infectivité, à chaque passage cellulaire, de ces préparations en suivant la production virale (mesure de l'antigène p24 exprimé) dans les lysats cellulaires solubilisés des cellules Supt-1 examinées.
Les mesures du pouvoir infectieux du virus VIH-1 après incubation avec de la chloroazodine ressortent des tableaux 1 à 3 suivants, ainsi que des figures 1 à 3 qui correspondent aux tableaux 1 à 3. Sur ces figures, on trouve en ordonnée la densité optique (D.O.) et en abscisse le nombre de jours après l'infection. Le trait plein représente le témoin non traite, le trait interrompu la dilution de 1/1500 de chloroazodine, et le trait pointillé la dilution de 1/3000 de chloroazodine.

In the case of `NC(N=NC(N)=NCl)=NCl` [chloroazodine, N, N'-dichloroazodicarbonamidine], the “multiplication du virus VIH-1 dans les cellules Supt-1” value (dilution 1/1500) is reported as “empêche totalement le virus VIH-1 de se multiplier”, the “multiplication du virus VIH-1 dans les cellules Supt-1” value (dilution 1/3000) is reported as “empêche totalement le virus VIH-1 de se multiplier” and the “temps pour l'éradication totale des virus” value (low concentration, in organic medium, conclusion from examples 3 to 5) is reported as at most 1 min. For the same compound, the “effet cytopathogène” value (phase-contrast microscopy, Supt-1 cells inoculated with virus pretreated with chloroazodine (control virus: syncytia from day 14)) was “aucun effet cytopathogène”, the “Mesure d'infectivité du virus VIH-1 (D.O.492)” value (virus incubated 1 minute with chloroazodine 1/1500, 10 days after infection) was 0,174 ± 0,002 and the “Mesure d'infectivité du virus VIH-1 (D.O.492)” value (virus incubated 1 minute with chloroazodine 1/1500, 14 days after infection) was 0,175 ± 0,016. For the same compound, the “Mesure d'infectivité du virus VIH-1 (D.O.492)” value (virus incubated 1 minute with chloroazodine 1/1500, 17 days after infection) was 0,152 ± 0,016, the “Mesure d'infectivité du virus VIH-1 (D.O.492)” value (virus incubated 1 minute with chloroazodine 1/1500, 21 days after infection) was 0,183 ± 0,026 and the “Mesure d'infectivité du virus VIH-1 (D.O.492)” value (virus incubated 1 minute with chloroazodine 1/1500, 24 days after infection) was 0,180 ± 0,008. The “Mesure d'infectivité du virus VIH-1 (D.O.492)” value (virus incubated 1 minute with chloroazodine 1/3000, 10 days after infection) was 0,173 ± 0,009, the “Mesure d'infectivité du virus VIH-1 (D.O.492)” value (virus incubated 1 minute with chloroazodine 1/3000, 14 days after infection) was 0,149 ± 0,002 and the “Mesure d'infectivité du virus VIH-1 (D.O.492)” value (virus incubated 1 minute with chloroazodine 1/3000, 17 days after infection) was 0,172 ± 0,016. For the same compound, the “Mesure d'infectivité du virus VIH-1 (D.O.492)” value (virus incubated 1 minute with chloroazodine 1/3000, 21 days after infection) was 0,202 ± 0,003, the “Mesure d'infectivité du virus VIH-1 (D.O.492)” value (virus incubated 1 minute with chloroazodine 1/3000, 24 days after infection) was 0,166 ± 0,004 and the “Mesure d'infectivité du virus VIH-1 (D.O.492)” value (virus incubated 10 minutes with chloroazodine 1/1500, 10 days after infection) was 0,146 ± 0,004. For the same compound, the “Mesure d'infectivité du virus VIH-1 (D.O.492)” value (virus incubated 10 minutes with chloroazodine 1/1500, 14 days after infection) was 0,151 ± 0,006, the “Mesure d'infectivité du virus VIH-1 (D.O.492)” value (virus incubated 10 minutes with chloroazodine 1/1500, 17 days after infection) was 0,165 ± 0,013 and the “Mesure d'infectivité du virus VIH-1 (D.O.492)” value (virus incubated 10 minutes with chloroazodine 1/1500, 21 days after infection) was 0,188 ± 0,016. For the same compound, the “Mesure d'infectivité du virus VIH-1 (D.O.492)” value (virus incubated 10 minutes with chloroazodine 1/1500, 24 days after infection) was 0,180 ± 0,008, the “Mesure d'infectivité du virus VIH-1 (D.O.492)” value (virus incubated 10 minutes with chloroazodine 1/3000, 10 days after infection) was 0,202 ± 0,021 and the “Mesure d'infectivité du virus VIH-1 (D.O.492)” value (virus incubated 10 minutes with chloroazodine 1/3000, 14 days after infection) was 0,146 ± 0,010. The “Mesure d'infectivité du virus VIH-1 (D.O.492)” value (virus incubated 10 minutes with chloroazodine 1/3000, 17 days after infection) was 0,157 ± 0,005, the “Mesure d'infectivité du virus VIH-1 (D.O.492)” value (virus incubated 10 minutes with chloroazodine 1/3000, 21 days after infection) was 0,182 ± 0,018 and the “Mesure d'infectivité du virus VIH-1 (D.O.492)” value (virus incubated 10 minutes with chloroazodine 1/3000, 24 days after infection) was 0,166 ± 0,004. For the same compound, the “Mesure d'infectivité du virus VIH-1 (D.O.492)” value (virus incubated 30 minutes with chloroazodine 1/1500, 10 days after infection) was 0,185 ± 0,008, the “Mesure d'infectivité du virus VIH-1 (D.O.492)” value (virus incubated 30 minutes with chloroazodine 1/1500, 14 days after infection) was 0,142 ± 0,010 and the “Mesure d'infectivité du virus VIH-1 (D.O.492)” value (virus incubated 30 minutes with chloroazodine 1/1500, 17 days after infection) was 0,176 ± 0,004. For the same compound, the “Mesure d'infectivité du virus VIH-1 (D.O.492)” value (virus incubated 30 minutes with chloroazodine 1/1500, 21 days after infection) was 0,194 ± 0,007, the “Mesure d'infectivité du virus VIH-1 (D.O.492)” value (virus incubated 30 minutes with chloroazodine 1/1500, 24 days after infection) was 0,163 ± 0,003 and the “Mesure d'infectivité du virus VIH-1 (D.O.492)” value (virus incubated 30 minutes with chloroazodine 1/3000, 10 days after infection) was 0,205 ± 0,013. The “Mesure d'infectivité du virus VIH-1 (D.O.492)” value (virus incubated 30 minutes with chloroazodine 1/3000, 14 days after infection) was 0,176 ± 0,005, the “Mesure d'infectivité du virus VIH-1 (D.O.492)” value (virus incubated 30 minutes with chloroazodine 1/3000, 17 days after infection) was 0,174 ± 0,015 and the “Mesure d'infectivité du virus VIH-1 (D.O.492)” value (virus incubated 30 minutes with chloroazodine 1/3000, 21 days after infection) was 0,169 ± 0,000.
